Source: US11365410B2, “Production and monitoring of metabolites in cells” (President and Fellows of Harvard College, priority 2015, dated 2022)

How the values were obtained:
acuR = test: acuR-based 3HP biosensor induction (indirect, via acrylate); type: cell-based, Rhodobacter sphaeroides; conditions: 10 mM 3HP; with pcs^Δ3 and ach
Protocol: Metab Eng, 16, 130-139 hereby incorporated by reference in its entirety). All three reactions are useful for a prpR-based biosensor, but for the acuR-based biosensor, accumulation of acrylyl-CoA rather than propionyl-CoA is necessary. […] Accordingly, the domain responsible for conversion of acrylyl-CoA to propionyl-CoA was removed while preserving the activity of the other two domains. […] A 90-fold increase in fluorescence was obtained when the acuR-based biosensor was induced with 10 mM 3HP. […] Fluorescence remained at background levels for greater than 16 hours in the absence of pcs^Δ3 and ach (see FIG. 17).
Plasmids were constructed using Gibson isothermal assembly methods (see Gibson, D. G., Young, L., Chuang, R. Y., Venter, J. C., Hutchison, C. A., 3rd and Smith, H. O. (2009) Enzymatic assembly of DNA molecules up to several hundred kilobases. Nat Methods, 6, 343-345 hereby incorporated by reference in its entirety) and cloned into DH5α electrocompetent cells purchased from New England Biolabs. Biosynthesis of product molecules was carried out in either BL21 (DE3) or DH5α. The prpR-based 3HP biosensor was implemented as a two-plasmid system. The first plasmid is pPro24-GFP (Addgene plasmid #18880), which expresses GFPuv under the control of the methyl-citrate responsive transcription factor, prpR, on a pBR322 origin of replication providing β-lactam resistance. […]

prpR (E. coli) = test: prpR-based 3HP biosensor induction (indirect, via 2-methylcitrate); type: cell-based; conditions: 12 mM 3-HP; with pcs and prpC
Excerpt: According to a first aspect, 3-HP is transformed into 2-methylcitrate in the presence of a 2-methylcitrate sensor. The resulting system is a 3-HP biosensor. The transcriptional regulator prpR from E. coli is used to control gene expression in proportion to the concentration of 2-methylcitrate inside the cell. This inducible system has been described previously with the aim of sensing propionate—a distinct chemical from 3HP (WO 2007005837 A3, http://www.ncbi.nlm.nih.gov/pubmed/16269719). The endogenous enzyme, 2-methylcitrate synthase (prpC), and the heterologous multifunctional enzyme propionyl-CoA synthase (pcs) from the carbon fixation pathway of Chloroflexus aurantiacus (see Mattozzi, M., Ziesack, M., Voges, M. J., Silver, P. A. and Way, J. C. (2013) Expression of the sub-pathways of the Chloroflexus aurantiacus 3-hydroxypropionate carbon fixation bicycle in E. coli: Toward horizontal transfer of autotrophic growth. Metab Eng, 16, 130-139 hereby incorporated by reference in its entirety) are used to produce 2-methylcitrate from 3-HP. Together the system of three genes (pcs, prpC, prpR) comprises the prpR-based 3HP biosensor (see FIG. 15A). […] As a result of this linkage, 3-HP concentration controls expression of green fluorescent protein (GFP). […] The proportion of 2-methylcitrate produced in this way is proportional to the amount of 3-HP inside the cell. […]

[1] = system: prpR-based 3HP biosensor (pcs, prpC, prpR); test: prpR-based 3HP biosensor characterization; type: cell-based, E. coli
Excerpt: According to a first aspect, 3-HP is transformed into 2-methylcitrate in the presence of a 2-methylcitrate sensor. The resulting system is a 3-HP biosensor. The transcriptional regulator prpR from E. coli is used to control gene expression in proportion to the concentration of 2-methylcitrate inside the cell. This inducible system has been described previously with the aim of sensing propionate—a distinct chemical from 3HP (WO 2007005837 A3, http://www.ncbi.nlm.nih.gov/pubmed/16269719). The endogenous enzyme, 2-methylcitrate synthase (prpC), and the heterologous multifunctional enzyme propionyl-CoA synthase (pcs) from the carbon fixation pathway of Chloroflexus aurantiacus (see Mattozzi, M., Ziesack, M., Voges, M. J., Silver, P. A. and Way, J. C. (2013) Expression of the sub-pathways of the Chloroflexus aurantiacus 3-hydroxypropionate carbon fixation bicycle in E. coli: Toward horizontal transfer of autotrophic growth. Metab Eng, 16, 130-139 hereby incorporated by reference in its entirety) are used to produce 2-methylcitrate from 3-HP. Together the system of three genes (pcs, prpC, prpR) comprises the prpR-based 3HP biosensor (see FIG. 15A). […] As a result of this linkage, 3-HP concentration controls expression of green fluorescent protein (GFP). […] The proportion of 2-methylcitrate produced in this way is proportional to the amount of 3-HP inside the cell. The expression of the controlled gene is thus a measurement of intracellular 3-HP concentration.
DH5α cells doubly transformed with plasmids pPro24-GFP and pJKR-PCS, or plasmids pJKR-H-acuR and pJKR-PCSfrag-ACH, were exposed to increasing concentrations of 3-HP and monitored for GFP expression. Cells were grown overnight to saturation before being diluted 1:100 into fresh LB media and incubated at 200 RPM and 37° C. After four hours, 150 μl of the log-phase cells were transferred to 96-well plates and 3HP was added to the appropriate final concentration. Each inoculation and induction was performed in triplicate. Strains lacking the biosensor helper plasmids were included to reveal that the biosensor activation was indeed dependent on the presence of the helper plasmids. In the case of the end-point measurements, fluorescence was measured 16 hours after 3-HP addition with a Biotek HT plate reader (excitation 485/20, emission 528/20). Time course data was collected over a 16 hour period on the same plate reader at 37° C. with fast shaking and 10 minute measurement intervals. Fluorescence was normalized by optical density. Fold induction was determined by dividing the fluorescence obtained at the current induction level by the fluorescence obtained without induction. Error bars represent the 95% confidence interval derived from the standard error of the mean.

`O=C(O)CCO` [3-HP, 3-hydroxypropionate] was tested, and the Increase in fluorescence (acuR) was 90 fold, the “Fluorescent response relative to uninduced” value (prpR (E. coli)) was 2.4 fold and the “time to half-maximal fluorescent response” value ([1]; 3-HP induction) was 5 h. For the same molecule, the “time to reach 90% induction” value ([1]; 3-HP induction) was “approximately 8 hours”, the “fluorescent response, fold greater than uninduced fluorescence” value ([1]; induced with 12 mM 3-HP) was 2.4 fold and the “response of prpR sensor alone” value ([1]; without helper enzyme pcs) was “cannot detect”.
